ChEMBL document CHEMBL3217711, “Erythromycin B: conformational analysis and antibacterial activity” (2011)
≈ marks a conversion by molar mass, not a printed value. Calls of active or inactive are those of the source. No cut-off for these calls is given here.

Key:
[1] = test system: Escherichia coli; assay: Binding affinity to Escherichia coli MRE 600 30S ribosome in 2M LiCl in buffered D2O at pH 7.4 by NMR analysis
[2] = test system: Streptococcus pyogenes; assay: Antimicrobial activity against Streptococcus pyogenes after 24 hrs by broth microdilution method; format: functional
[3] = test system: Haemophilus influenzae; assay: Antimicrobial activity against Haemophilus influenzae ATC 12699 after 24 hrs by broth microdilution method; format: functional; conditions: ATC 12699, 24 h
[4] = test system: Staphylococcus aureus; assay: Antimicrobial activity against Staphylococcus aureus ACC 601065 after 24 hrs by broth microdilution method; format: functional; conditions: ACC 601065, 24 h
[5] = test system: Burkholderia cepacia; assay: Antimicrobial activity against Burkholderia cepacia after 24 hrs by broth microdilution method; format: functional, organism-based
[6] = test system: Burkholderia cepacia; assay: Antimicrobial activity against Burkholderia cepacia compound preincubated with 0.1 M hydrochoric acid for 40 mins measured after 24 hrs by broth microdilution method; format: functional, organism-based
[7] = test system: Escherichia coli; assay: Binding affinity to Escherichia coli MRE 600 50S ribosome in 2M LiCl in buffered D2O at pH 7.4 by NMR analysis
[8] = test system: Staphylococcus aureus; assay: Antimicrobial activity against Staphylococcus aureus ACC 601065 compound preincubated with 0.1 M hydrochoric acid for 40 mins measured after 24 hrs by broth microdilution method; format: functional
[9] = test system: Haemophilus influenzae; assay: Antimicrobial activity against Haemophilus influenzae ATC 12699 compound preincubated with 0.1 M hydrochoric acid for 40 mins measured after 24 hrs by broth microdilution method; format: functional
[10] = test system: Streptococcus pyogenes; assay: Antimicrobial activity against Streptococcus pyogenes compound preincubated with 0.1 M hydrochoric acid for 40 mins measured after 24 hrs by broth microdilution method; format: functional

Row | Activity [1] | MIC [2] [µg/mL] | MIC [3] [µg/mL] | MIC [4] [µg/mL] | MIC [5] | MIC [6] | Activity [7] | MIC [8] [µg/mL] | MIC [9] [µg/mL] | MIC [10] [µg/mL] | SMILES
1 | inactive | 0.2 (≈ 0.279 µM) | 2.3 (≈ 3.2 µM) | 0.7 (≈ 0.975 µM) | inactive | inactive | Active | 1.4 (≈ 1.95 µM) | 3.6 (≈ 5.01 µM) | 0.3 (≈ 0.418 µM) | CC[C@H]1OC(=O)[C@H](C)[C@@H](O[C@H]2C[C@@](C)(OC)[C@@H](O)[C@H](C)O2)[C@H](C)[C@@H](O[C@@H]2O[C@H](C)C[C@H](N(C)C)[C@H]2O)[C@](C)(O)C[C@@H](C)C(=O)[C@H](C)[C@@H](O)[C@H]1C [BERYTHROMYCIN]
2 | – | 0.2 (≈ 0.267 µM) | 0.6 (≈ 0.802 µM) | 0.6 (≈ 0.802 µM) | inactive | inactive | – | 0.9 (≈ 1.2 µM) | 1.8 (≈ 2.41 µM) | 0.3 (≈ 0.401 µM) | CC[C@H]1OC(=O)[C@H](C)[C@@H](O[C@H]2C[C@@](C)(OC)[C@@H](O)[C@H](C)O2)[C@H](C)[C@@H](O[C@@H]2O[C@H](C)C[C@H](N(C)C)[C@H]2O)[C@](C)(OC)C[C@@H](C)C(=O)[C@H](C)[C@@H](O)[C@]1(C)O [CLARITHROMYCIN]
3 | – | 0.2 (≈ 0.273 µM) | 2.2 (≈ 3 µM) | 0.9 (≈ 1.23 µM) | inactive | inactive | – | > 8 | > 4 | 1 (≈ 1.36 µM) | CC[C@H]1OC(=O)[C@H](C)[C@@H](O[C@H]2C[C@@](C)(OC)[C@@H](O)[C@H](C)O2)[C@H](C)[C@@H](O[C@@H]2O[C@H](C)C[C@H](N(C)C)[C@H]2O)[C@](C)(O)C[C@@H](C)C(=O)[C@H](C)[C@@H](O)[C@]1(C)O [ERYTHROMYCIN]
